Measured values as given in patent publication US11571404B2, “Compositions and methods for the treatment of liver diseases and disorders associated with one or both of hyperammonemia or muscle wasting” (priority 2017, dated 2023).

Assays:
primary human myotubes = assay: TNF induced myotube atrophy, MYOSCREEN platform (Example 10); format: cell-based; parameters: Myotube Area mean: unit not given here; conditions: for Fusion Index mean / Myotube Area mean: TNFalpha 10 ng/mL, N=3
Experimental: Methods: Experiment was performed using the […] platform (CYTOO, France). Briefly, […] is a proprietary technology based on micropatterning and defined microenvironments that establish highly mature primary human myotubes with substantial striation and low morphological variability. Primary cells derived from skeletal muscle of healthy human donors are differentiated to form myotubes (multinucleated syncytia) that are highly reminiscent of human muscle tissue. […] is a fully automated platform that interrogates multiple phenotypes relevant for muscle physiology including myotube area, fusion index, and total nuclei. On Day 0 expanded primary myoblasts from a healthy human donor were seeded at 10,000 cells per well for 24 hour at 37 deg C. […] Importantly, treatment groups were prepared in PBS and final concentration in all wells, including controls, was 10% PBS. On Day 2 cells were switched to Cirrhosis Media based on DMEM comprising 0.1% horse serum and 0.5× amino acids at ratios of plasma of cirrhosis (Kakazu et al., 2013) containing atrophy inducer TNFalpha (10 ng/mL) and again treated according to Day 1 and Table 16. On Day 6 cells were fixed with 5% Formalin for 30 minutes at room temperature. Fixed cells were processed for immunostaining with primary antibody against Troponin T to stain myotubes and Hoeschst dye for nuclei. Image acquisition was done at 10× magnification using Operetta High Content Imaging System and analysis was performed using a proprietary and dedicated algorithm on the Acapella High Content Imaging System (Perkin Elmer, CYTOO).

[1] = system: C3A derivative clone of the HepG2 Hepatocellular Carcinoma cell line; assay: Hepatic albumin production in cirrhosis media, ELISA normalized to nuclei (Example 9); format: cell-based, human; conditions: for Albumin/Nuclei (mean): 48 hours
Experimental: Media composed of amino acids consistent with profiles of cirrhotic individuals was tested for effect on production of albumin. Effects of […], components and comparator compositions on albumin production were determined. Methods: The ability of […] to increase hepatocyte albumin production was assessed using the C3A derivative clone of the HepG2 Hepatocellular Carcinoma cell line (ATCC, CRL-10741). 2.0e4 cells per well were seeded on day 0 in a 96-well microplate (Corning; 3903) in Dulbecco's Modified Eagle Medium (DMEM, Corning) supplemented with 10% fetal bovine serum (Corning) and 0.2% Primocin (InVivoGen, San Diego, Calif.) and incubated for 24 hours at 37° C., 5% CO2. […] Cells were cultured for 48 hours at 37° C., 5% CO2, media was collected, cells were washed 1× in PBS, fixed in 4% paraformaldehyde, washed 2× in PBS, nuclei were stained with Hoechst 33342 according to manufacturer's instructions (Life Technologies, H3570) and then washed 2× in PBS. Media albumin levels were assessed by R&D Systems's DuoSet ELISA Development System for Human Serum Albumin (R&D Systems, DY1455) and nuclei were counted using Molecular Devices Image Express High Content Screening platform and pre-installed nuclei counting analysis pipeline. Albumin levels were normalized to total nuclei in order to derive a per cell albumin production ratio.

[2] = dose 5X of concentration in cirrhosis media
[3] = dose 10x of concentration in cirrhosis media
[4] = dose 20X of concentration in cirrhosis media
[5] = dose 30X of concentration in cirrhosis media

CC(C)C[C@H](N)C(=O)O [L, L-leucine]
Effect on Atrophy (primary human myotubes; TNF induced myotube atrophy, overall call across doses): no effect | Fusion Index mean (primary human myotubes; [2]): 0.087 | Myotube Area mean (primary human myotubes; [2]): 4499.140 | Fusion Index mean (primary human myotubes; [3]): 0.094 | Myotube Area mean (primary human myotubes; [3]): 4480.850 | Fusion Index mean (primary human myotubes; [4]): 0.091 | Myotube Area mean (primary human myotubes; [4]): 4679.729 | Fusion Index mean (primary human myotubes; [5]): 0.092 | Myotube Area mean (primary human myotubes; [5]): 4579.231 | Albumin/Nuclei (mean) ([1]; Dose 5X of basal media concentrations): −0.087 | Albumin/Nuclei (mean) ([1]; Dose 10X of basal media concentrations): −0.116 | Albumin/Nuclei (mean) ([1]; Dose 20X of basal media concentrations): −0.219 | Albumin/Nuclei (mean) ([1]; Dose 40X of basal media concentrations): 0.148 | Effect on Albumin ([1]; over the dose curve 5X-40X): No Effect
